What all share (assay): PTP IC50 assay, pNPP or FDP as substrate
What all share (type): biochemical

One test deals with T1, PTP MU (Homo sapiens, UniProt P28827).
T1 construct: made in house; host or cells: E. coli BL-21 (pGEX 6P-1)

The next test deals with T2, PTP EPSILON (Homo sapiens, UniProt P23469).
T2 construct: made in house; host or cells: Sf-9 insect cells (pFastBac-G2T); a pGEX 6P-1 construct also existed
The note with it: pNPP or FDP as substrate, 25° C. The procedure:
(§1) The following in vitro assay procedure is preferred to determine the level of activity and effect of the different compounds of the present invention on one or more of the PTPs. Similar assays can be designed along the same lines for any PTP using techniques well known in the art.
(§2) The catalytic assays described herein are performed in a 96-well format. The general procedure begins with the determination of PTP optimal pH using a three-component buffer system that minimizes ionic strength variations across a wide range of buffer pH. Next, the Michaelis-Menten constant, or Km, is determined for each specific substrate-PTP system. This Km value is subsequently used as the substrate reaction concentration for compound screening. Finally, the test PTP is exposed to varying concentrations of compound for fifteen minutes and allowed to react with substrate for ten minutes. The results are plotted as percent inhibition versus compound concentration and the IC50 interpolated from the plot.
(§3) All assays were performed using pNPP or FDP as substrate. The optimum pH was determined for each PTP used.
(§4) PTPase activity was assayed at 25° C. in a 100-μl reaction mixture containing an appropriate concentration of pNPP or FDP as substrate. The reaction was initiated by addition of the PTP and quenched after 10 min by addition of 50 μl of IN NaOH. The non-enzymatic hydrolysis of the substrate was corrected by measuring the control without the addition of the enzyme. The amount of p-nitrophenol produced was determined from the absorbance at 410 nm. To determine the kinetic parameter, Km, the initial velocities were measured at various substrate concentrations and the data were fitted to the Michaelis equation where velocity=(Vmax*[S])/(Km+[S]), and [S]=substrate reaction concentration.
(§5) The effect of the compounds on PTP was evaluated at 25° C. using pNPP or FDP as substrate. PTP was pre-incubated for fifteen minutes with various concentrations of compound. Substrate was then added at a fixed concentration (usually equal to the Km previously calculated). After 10 minutes, NaOH was added to stop the reaction. The hydrolysis of pNPP was followed at 410 nm on the Biotek Powerwave 200 microplate scanning spectrophotometer. The percent inhibition was calculated as follows: Percent Inhibition=[(control signal−compound signal)/control signal] ×100%. The IC50 was then determined by interpolation of a percent inhibition versus compound concentration plot.
(§6) Plasmids designed for bacterial GST-PTP fusion protein expression were derived by insertion of PCR-generated human PTP fragments into pGEX vectors (Pharmacia Biotech). Several of these constructs were then used to subclone phosphatases into pFastBac-1for expression in Sf-9 insect cells. Oligonucleotides used for the initial amplification of PTP genes are shown below. The cDNAs were prepared using the Gilbo BRL superscript preamplification system on RNAs purchased from Clontech.
The PTPepsilon cDNA was amplified from human placenta single-strand cDNA (Clontech RNA) using the following oligonucleotides: 5′oligo: 5′-[…]-3′ (SEQ ID NO: 6) 3′oligo: 5′-[…]-3′ (SEQ ID NO: 7) After cloning this PCR product into the Bam HI/Xho I sites of pGEX 6P-1, this phosphatase was subcloned using the same restriction sites in pFastBac-G2T.

The target in the next test is T3, PTP ALPHA (Homo sapiens, UniProt P18433).
T3 construct: RTPα intracellular domain construct was obtained; made in house; host or cells: E. coli BL-21 (pGEX 3X)
To be noted: 25° C. The procedure: as §1, §2, §3, §4, §5, §6
RTPα intracellular domain construct was obtained, Schlessinger et al., U.S. Pat. No. 5,888,794, the contents of which are hereby incorporated in their entirety into the present application. The RTPα fragment was cloned into pGEX 3× using the following procedure. The portion from EclX I/Xma III/Eag I (N-terminus blunted by Klenow) to Eco RV was cloned into the Sma I site. The EclX I site is approximately 15 residues downstream of the transmembrane domain.

The next test addresses T4, PTP MEG2 (Homo sapiens, UniProt P43378).
T4 construct: made in house; host or cells: E. coli BL-21 (pGEX 6P-1)
T4 sequence (P43378 262-593 limits assumed): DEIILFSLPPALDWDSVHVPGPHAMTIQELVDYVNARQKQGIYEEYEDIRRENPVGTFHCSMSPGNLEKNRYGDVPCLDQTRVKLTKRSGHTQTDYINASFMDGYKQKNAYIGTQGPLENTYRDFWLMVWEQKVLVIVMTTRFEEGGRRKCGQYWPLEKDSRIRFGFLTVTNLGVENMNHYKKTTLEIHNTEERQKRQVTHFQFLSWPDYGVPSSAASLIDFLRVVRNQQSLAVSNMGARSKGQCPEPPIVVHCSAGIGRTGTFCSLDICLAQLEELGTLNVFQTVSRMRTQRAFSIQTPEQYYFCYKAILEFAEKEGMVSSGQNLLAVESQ
To be noted: 25° C. The method, then:
as §1, §2, §3, §4, §5, §6
The PTP MEG2 cDNA was amplified from human placenta single strand cDNA (Clontech RNA) using the following oligonucleotides: 5′oligo: 5′-[…]-3′ (SEQ ID NO: 8) 3′oligo: 5′-[…]-3′ (SEQ ID NO: 9) and subsequently ligated into pGex 6P-1 Eco RI/Xho I sites.

The target of the next test is T5, PTP BETA (Homo sapiens, UniProt P23467).
T5 construct: The catalytic domain was amplified using the following oligonucleotides; made in house; host or cells: E. coli BL-21 (pGEX 6P-1)
T5 sequence (P23467 1653-1997): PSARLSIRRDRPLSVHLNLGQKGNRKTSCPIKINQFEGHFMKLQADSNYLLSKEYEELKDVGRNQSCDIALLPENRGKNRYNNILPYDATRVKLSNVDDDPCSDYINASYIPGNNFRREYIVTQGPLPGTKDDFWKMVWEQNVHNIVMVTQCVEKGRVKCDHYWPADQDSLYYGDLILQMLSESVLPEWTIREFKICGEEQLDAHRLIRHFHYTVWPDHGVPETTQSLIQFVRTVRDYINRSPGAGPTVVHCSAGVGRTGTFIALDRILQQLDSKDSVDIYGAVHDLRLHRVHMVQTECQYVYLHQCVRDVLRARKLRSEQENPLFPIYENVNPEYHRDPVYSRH
To be noted: pNPP or FDP as substrate, 25° C. The procedure: as §1, §2, §3, §4, §5, §6
The PTP Beta cDNA used has been described earlier (Levy et al., 1993, J. Biol. Chem, 268:10573-10581). The catalytic domain was amplified using the following oligonucleotides: 5′oligo: 5′-[…]-3′ (SEQ ID NO: 16) 3′oligo: 5′-[…]-3′ (SEQ ID NO: 17) and subsequently cloned into the Eco RI/Xho I sites of pGEX 6P-1.

Setting [1] is: pNPP or FDP as substrate, 25° C., read-out: PTP IC50 Mu.
Setting [2] is: pNPP or FDP as substrate, read-out: PTP IC50 MEG2.

Among the data in US6596772B1, “Phosphate mimics and methods of treatment using phosphatase inhibitors” (Sugen, Inc., priority 1999, dated 2003) are IC50 values, retold here.

Where two headings read alike, the source gives them in different places.

T2 sequence (P23469 80-393 limits assumed): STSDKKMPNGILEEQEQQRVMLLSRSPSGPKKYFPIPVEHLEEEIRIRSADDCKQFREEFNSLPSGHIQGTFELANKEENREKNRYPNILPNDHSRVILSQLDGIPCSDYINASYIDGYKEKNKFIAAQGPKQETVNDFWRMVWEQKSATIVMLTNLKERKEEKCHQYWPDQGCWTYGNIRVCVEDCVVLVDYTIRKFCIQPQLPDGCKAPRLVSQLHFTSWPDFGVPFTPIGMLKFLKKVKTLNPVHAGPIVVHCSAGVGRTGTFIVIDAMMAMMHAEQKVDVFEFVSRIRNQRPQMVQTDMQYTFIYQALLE
T1 sequence (P28827 831-1186 limits assumed): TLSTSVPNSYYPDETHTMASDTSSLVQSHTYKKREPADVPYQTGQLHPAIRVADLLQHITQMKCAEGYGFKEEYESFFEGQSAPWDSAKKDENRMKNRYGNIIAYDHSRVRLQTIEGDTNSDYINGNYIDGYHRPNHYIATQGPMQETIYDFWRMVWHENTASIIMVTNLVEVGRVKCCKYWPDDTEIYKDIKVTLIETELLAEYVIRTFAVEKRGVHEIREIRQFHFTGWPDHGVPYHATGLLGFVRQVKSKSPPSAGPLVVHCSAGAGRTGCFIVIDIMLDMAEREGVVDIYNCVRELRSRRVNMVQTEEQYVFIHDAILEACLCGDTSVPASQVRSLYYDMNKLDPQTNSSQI

In the case of `CC(C)(COc1ccc(NS(=O)(=O)C(F)(F)F)cc1)COc1ccc(NS(=O)(=O)C(F)(F)F)cc1` [Example 68, 1,3-Bis(4-trifluoromethylsulfonamidophenoxy)-2,2-dimethylpropane], the concentration for half-maximal inhibition (IC50) (usually the concentration needed to halve the response being measured) at PTP MU (setting [1]) was determined as 42 µM; at PTP EPSILON (read-out: PTP IC50 Epilson), 37 µM; at PTP ALPHA, 27 µM; on PTP MEG2 (setting [2]), 34.4 µM; on PTP BETA (read-out: PTP IC50 Beta), 15.2 µM.

Consider `O=[N+]([O-])c1cc(S(=O)(=O)C(F)(F)F)ccc1Oc1cc(CN2CCOCC2)c(Oc2ccc(S(=O)(=O)C(F)(F)F)cc2[N+](=O)[O-])cc1CN1CCOCC1` [Example 23, 3,6-Bis-(morpholin-4-ylmethyl)-2,5-bis-(2-nitro-4-trifluoromethanesulfonyl-phenoxy)-benzene], for which the IC50 is 18.3 µM on PTP MU (setting [1]); 2.2 µM at PTP EPSILON (read-out: PTP IC50 Epilson); above 100 µM on PTP ALPHA; above 100 µM on PTP MEG2 (setting [2]); 1.1 µM on PTP BETA (read-out: PTP IC50 Beta).

For the compound `O=C(c1ccccc1)N(Cc1ccc(S(=O)(=O)C(F)(F)F)cc1)Cc1ccc(S(=O)(=O)C(F)(F)F)cc1` [Example 3, N,N-Bis(4-trifluoromethylsulfonylbenzyl)benzamide], the IC50 at PTP MU (setting [1]) is above 100 µM; on PTP EPSILON (read-out: PTP IC50 Epilson) it was 28.1 µM; on PTP ALPHA, above 100 µM; at PTP MEG2 (setting [2]) it was 85.9 µM; at PTP BETA (read-out: PTP IC50 Beta), 17.2 µM.

Turning to `CCOC(=O)COc1ccc(S(=O)(=O)c2ccc(Oc3ccc(S(=O)(=O)C(F)(F)F)cc3)cc2)cc1` [Example 19, {4-[4-(4-trifluoromethanesulfonyl-phenoxy)-benzenesulfonyl]-phenoxy}-acetic acid ethyl ester], the IC50 was 69.5 µM at PTP MU (setting [1]); 31.4 µM on PTP EPSILON (read-out: PTP IC50 Epilson); above 100 µM at PTP ALPHA; 52.2 µM at PTP MEG2 (setting [2]); 1.9 µM at PTP BETA (read-out: PTP IC50 Beta).

Regarding `O=C(Cc1ccc(CC(=O)Nc2cccc(S(=O)(=O)C(F)(F)F)c2)cc1)Nc1cccc(S(=O)(=O)C(F)(F)F)c1` [Example 22, N-(3-Trifluoromethanesulfonyl-phenyl)-2-{4-[(3-trifluoromethanesulfonyl-phenylcarbamoyl)-methyl]-phenyl}-acetamide], the IC50 is 17.4 µM on PTP MU (setting [1]); 8.3 µM at PTP EPSILON (read-out: PTP IC50 Epilson); above 100 µM on PTP ALPHA; 27.5 µM on PTP MEG2 (setting [2]); 1.4 µM at PTP BETA (read-out: PTP IC50 Beta).

In the case of `O=S(=O)(c1ccc(COc2ccc(S(=O)(=O)C(F)(F)F)cc2)cc1)C(F)(F)F` [Example 2, 4-Trifluoromethylsulfonylbenzyl 4-trifluoromethylsulfonylphenyl ether], the IC50 was above 100 µM on PTP MU (setting [1]); 8.1 µM at PTP EPSILON (read-out: PTP IC50 Epilson); above 100 µM on PTP ALPHA; 62.1 µM on PTP MEG2 (setting [2]); 3.5 µM at PTP BETA (read-out: PTP IC50 Beta).

On to `O=C(NCc1ccc(S(=O)(=O)C(F)(F)F)cc1)c1ccc(S(=O)(=O)C(F)(F)F)cc1` [Example 5, N-(4-Trifluoromethylsulfonylbenzyl)-4-trifluoromethylsulfonylbenzamide], for which the IC50 at PTP MU (setting [1]) is above 100 µM; on PTP EPSILON (read-out: PTP IC50 Epilson), 38.6 µM; on PTP ALPHA, above 100 µM; on PTP MEG2 (setting [2]), above 100 µM; on PTP BETA (read-out: PTP IC50 Beta), 44.8 µM.

In the case of `CCNc1ccc(S(=O)(=O)C(F)(F)F)cc1NC(=O)Cc1ccc(S(C)(=O)=O)cc1` [Example 25, N-(2-Ethylamino-5-trifluoromethanesulfonyl-phenyl)-2-(4-methanesulfonyl-phenyl)-acetamide], the IC50 at PTP MU (setting [1]) is 48.8 µM; at PTP EPSILON (read-out: PTP IC50 Epilson), 41.4 µM; on PTP ALPHA, above 100 µM; on PTP MEG2 (setting [2]) it was 52.6 µM; at PTP BETA (read-out: PTP IC50 Beta) it was 0.35 µM.

As to `O=S(=O)(Nc1ccc(CCc2ccc(NS(=O)(=O)C(F)(F)F)cc2)cc1)C(F)(F)F` [Example 66, 1,2-Bis(4-trifluoromethylsulfonamidophenyl)ethane], the IC50 on PTP MU (setting [1]) was 70.9 µM; on PTP EPSILON (read-out: PTP IC50 Epilson), above 100 µM; on PTP ALPHA it was above 100 µM; on PTP MEG2 (setting [2]), above 100 µM; on PTP BETA (read-out: PTP IC50 Beta), 39.9 µM.

With `NC(=O)c1cc(Oc2ccc(S(=O)(=O)C(F)(F)F)cc2[N+](=O)[O-])cc(Oc2ccc(S(=O)(=O)C(F)(F)F)cc2[N+](=O)[O-])c1` [Example 30, 3,5-Bis-(2-nitro-4-trifluoromethanesulfonyl-phenoxy)-benzamide], the IC50 at PTP MU was 28.4 µM; on PTP EPSILON (PTP IC50 Epilson) it was 4.3 µM; at PTP ALPHA, above 100 µM; on PTP MEG2 (PTP IC50 MEG2, pNPP or FDP as substrate), 64.3 µM; on PTP BETA (PTP IC50 Beta), 3.4 µM.

As to `CCOC(=O)c1cc(Oc2ccc(S(=O)(=O)C(F)(F)F)cc2[N+](=O)[O-])c(C(=O)OCC)cc1O` [Example 26, 2-Hydroxy-5-(2-nitro-4-trifluoromethanesulfonyl-phenoxy)-terephthalic acid diethyl ester], the IC50 is 65 µM on PTP MU (setting [1]); 6.2 µM at PTP EPSILON (read-out: PTP IC50 Epilson); above 100 µM on PTP ALPHA; 90.8 µM at PTP MEG2 (setting [2]); 2.9 µM on PTP BETA (read-out: PTP IC50 Beta).

Regarding `Cc1cc(NS(=O)(=O)C(F)(F)F)ccc1CCc1ccc(NS(=O)(=O)C(F)(F)F)cc1C` [Example 67, 1,2-Bis(2-methyl-4-trifluoromethylsulfonamidophenyl)ethane], the IC50 came to 41.3 µM on PTP MU (setting [1]); 50.8 µM at PTP EPSILON (read-out: PTP IC50 Epilson); 53.6 µM on PTP ALPHA; 85.7 µM at PTP MEG2 (setting [2]); 55.9 µM at PTP BETA (read-out: PTP IC50 Beta).

With `O=C(O)c1ccc(Oc2cccc(Oc3ccc(S(=O)(=O)C(F)(F)F)cc3)c2)cc1` [Example 18, 4-[3-(4-Trifluoromethanesulfonyl-phenoxy)-phenoxy]-benzoic acid], the IC50 at PTP MU (setting [1]) was 21.6 µM; at PTP EPSILON (read-out: PTP IC50 Epilson), 0.77 µM; on PTP ALPHA, 40.4 µM; on PTP MEG2 (setting [2]), 44 µM; on PTP BETA (read-out: PTP IC50 Beta), 13.5 µM.
